Test results reported in US20030032580A1, “Use of agonists or antagonists of the 5-HT7 receptor to treat disorders of the bladder” (Synaptic Pharmaceutical Corporation, priority 1999, published 2003).

Legend:
[1] = system: rat urinary bladder strips; assay: Isolated rat urinary bladder strips: agonist-evoked increase of electrically evoked, nerve-mediated contractions; type: cell-based
From the text: 5-HT receptors in the rat urinary bladder which, when activated by serotonin agonists, cause increases in the magnitude of nerve-mediated contractions, were identified and characterized pharmacologically using isolated strips of rat bladder.
Urinary bladders were isolated from female CD rats (Charles Rivers, 250-300 g). The bladder base (lower third) was removed and the detrusor region was opened into a flat sheet by cutting from the basal opening to the apex. This was cut into quadrants, each of which was attached on its lateral edges by two tissue clips and suspended in a 5 ml tissue bath containing Krebs' solution (pH 7.4 37° C.) of the following composition (mM): NaCl (118), KCl (4.9), NaHCO3 (25), MgCl2 (1.2), NaHPO4 (1.0), CaCl2 (2.5), glucose (11) and aerated continuously with 95% O2/5% CO2. Except in initial experiments, prazosin (0.1 μM), idazoxan (0.3 μM), and indomethacin (10 μM) were included routinely in the buffer to block α1- and α2-adrenoceptors and to prevent the formation of prostaglandins, respectively. After allowing 30 min for equilibration, bladder strips were placed under 1.0 g resting tension, readjusted 6 times over the next 30 min. For most experiments contractile responses were evoked by transmural electrical impulses delivered by Grass S-88 (Grass Instruments, City, Mass.) stimulators (single pulses, 0.1 Hz, 1 ms pulse width, 90 V) through a pair of stainless steel electrodes. Contractions were measured using isometric force transducers (Radnotti Instruments, Monrovia, Calif.) and recorded using MacLab software (AD Instruments, Milford, Mass.).
Bladder strips, in Krebs' solution containing antagonist or vehicle, were stimulated at supramaximal voltage until contractions of consistent magnitude were obtained (ca. 30 min). During this period the Krebs' solution was exchanged at 15 min intervals. Cumulative concentration-effect curves were then constructed by administering 5-carboxamidotryptamine (5-CT) or other agonists in 0.5 log M increments. Responses are expressed as a percent of control, and represent agonist-evoked increases in the magnitude of the electrically evoked contractions relative to that in the absence of agonist (“control”, taken as 100%). […] Therefore, only a single agonist concentration-effect curve was constructed in each tissue.
Concentration-effect curves were fitted (Kaleidagraph, Synergy Software, PCS Inc., Reading PA) to 1-site or 2-site models of agonism as represented by the following equations:
(1-site): Effect=Emax[A]^n/[A]^n+EC50^n;
(2-site): Effect=(Emax^a[A]/[A]+EC50^a+(Emax^b[A]/[A]+EC50^b),
where Emax represents the maximum effect of the agonist, [A] is the agonist molar concentration, EC50 is the concentration of agonist eliciting half its maximum effect, n is the slope factor, and the italicized superscripts (a and b) denote values for the first and second phase of the biphasic curve. Antagonist pKB values were determined using the formula described by Furchgott (1972): pKB=log (agonist concentration ratio −1/antagonist concentration [M]. In some instances, pKB values were determined according to the method of Arunlakshana and Schild (1959), in which the slope of the Schild plot was constrained to unity. Concentration ratios for Schild analyses were calculated from mean EC50 values for the agonist in the absence and presence of the antagonist in experiments from n different animals.

[2] = biological target: T1, 5-HT2B receptor (second phase of the concentration-effect curve to 5-CT in the rat bladder) (Rattus norvegicus, UniProt P30994); assay: Electrically stimulated rat bladder strips: second (low potency) phase of the concentration-effect curve to 5-CT; type: cell-based
T1 construct: from tissue; host or cells: rat urinary bladder detrusor strips
T1 sequence (P30994 whole entry): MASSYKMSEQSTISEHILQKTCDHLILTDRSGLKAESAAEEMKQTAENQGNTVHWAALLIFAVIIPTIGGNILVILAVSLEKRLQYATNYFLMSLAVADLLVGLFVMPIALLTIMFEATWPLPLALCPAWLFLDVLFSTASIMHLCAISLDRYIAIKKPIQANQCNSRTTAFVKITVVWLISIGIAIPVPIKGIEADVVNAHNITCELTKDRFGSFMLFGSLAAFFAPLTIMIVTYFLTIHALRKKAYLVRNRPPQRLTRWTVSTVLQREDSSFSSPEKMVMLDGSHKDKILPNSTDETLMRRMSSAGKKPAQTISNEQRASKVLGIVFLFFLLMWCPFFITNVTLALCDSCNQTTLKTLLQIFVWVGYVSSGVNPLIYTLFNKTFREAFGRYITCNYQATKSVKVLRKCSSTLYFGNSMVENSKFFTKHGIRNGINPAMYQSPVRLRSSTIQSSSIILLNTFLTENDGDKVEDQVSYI

[3] = biological target: T2, 5-HT7 receptor (first phase of the concentration-effect curve to 5-CT in the rat bladder) (Rattus norvegicus, UniProt P32305); assay: Electrically stimulated rat bladder strips: first (high potency) phase of the concentration-effect curve to 5-CT; type: cell-based
T2 construct: from tissue; host or cells: rat urinary bladder detrusor strips
T2 sequence (P32305 whole entry): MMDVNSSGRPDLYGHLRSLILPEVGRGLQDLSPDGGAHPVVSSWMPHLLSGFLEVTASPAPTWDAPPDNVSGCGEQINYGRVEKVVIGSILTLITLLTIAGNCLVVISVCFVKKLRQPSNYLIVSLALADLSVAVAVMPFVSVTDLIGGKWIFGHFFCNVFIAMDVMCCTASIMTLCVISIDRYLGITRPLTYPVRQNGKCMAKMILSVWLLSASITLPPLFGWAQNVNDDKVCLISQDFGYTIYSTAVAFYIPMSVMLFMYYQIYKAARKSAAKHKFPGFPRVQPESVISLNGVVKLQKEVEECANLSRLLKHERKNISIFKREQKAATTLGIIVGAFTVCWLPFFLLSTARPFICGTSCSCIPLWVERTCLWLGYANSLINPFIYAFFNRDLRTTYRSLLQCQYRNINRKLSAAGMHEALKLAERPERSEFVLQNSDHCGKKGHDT

[4] = system: rat bladder strips (postjunctional response to α,β-methylene-ATP); type: cell-based; settings: 0.1 and 10 μM; 5 minute incubation; tetrodotoxin 0.1 μM; α,β-methylene-ATP 3 μM
[5] = biological target: T3, human 5-HT7 receptor (Homo sapiens, UniProt P34969); assay: Radioligand binding at cloned 5-HT7 receptor, this study ([3H]serotonin competition); settings: reference: this study, read-out: pK1 (converted)
T3 construct: host or cells: LM(tk-) mouse fibroblasts, clone L-5HT-4B
T3 sequence (P34969 1-445 isoform P34969-2): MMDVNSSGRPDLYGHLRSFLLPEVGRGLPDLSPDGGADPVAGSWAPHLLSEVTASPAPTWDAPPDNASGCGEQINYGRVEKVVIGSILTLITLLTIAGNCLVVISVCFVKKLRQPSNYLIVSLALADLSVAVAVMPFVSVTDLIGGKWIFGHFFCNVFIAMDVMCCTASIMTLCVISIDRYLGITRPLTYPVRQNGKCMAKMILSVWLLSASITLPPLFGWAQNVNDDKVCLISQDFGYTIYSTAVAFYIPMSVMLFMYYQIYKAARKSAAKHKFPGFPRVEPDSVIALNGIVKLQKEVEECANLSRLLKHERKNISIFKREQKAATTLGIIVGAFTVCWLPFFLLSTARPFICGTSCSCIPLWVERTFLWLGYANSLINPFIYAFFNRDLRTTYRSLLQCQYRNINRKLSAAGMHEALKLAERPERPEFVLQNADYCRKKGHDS
Experimental: The binding of a test compound to a receptor of interest was generally evaluated by competitive binding assays using membrane preparations derived from cells which expressed the receptor. First, conditions were determined which allowed measurement of the specific binding of a compound known to bind to the receptor. Then, the binding of the known compound to the receptor in membrane preparations was evaluated in the presence of several different concentrations of the test compound.
Human Serotonin Receptors. 5-HT1Dα, 5-HT1Dβ, 5-HT1E, 5-HT1F, and 5-HT7 Receptors: The cell lysates of LM(tk-) clonal cell line stably transfected with the genes encoding each of these 5-HT receptor-subtypes were prepared as described above. The cell line for the 5-HT1Dα receptor, designated as Ltk-8-30-84, was deposited on Apr. 17, 1990, and accorded ATCC Accession No. CRL 10421. The cell for the 5-HT1Dβ receptor, designated as Ltk-11, was deposited on Apr. 17, 1990, and accorded ATCC Accession No. CRL 10422. The cell line for the […] receptor, designated 5-HT1E-7, was deposited on Nov. 6, 1991, and accorded ATCC Accession No. CRL 10913. The cell line for the 5-HT1F receptor, designated L-5-HT1F, was deposited on Dec. 27, 1991, and accorded ATCC Accession No. ATCC 10957. […] Nonspecific binding was determined in the presence of 10 μM serotonin. […]

[6] = biological target: cloned rat 5-HT2B receptor (Rattus norvegicus, UniProt P30994); settings: cited from earlier work
Chain of cloned rat 5-HT2B receptor (P30994 whole entry): as the sequence (P30994 whole entry) above

[7] = biological target: 5-HT1E (Homo sapiens, UniProt P28566); settings: Adham et al., 1993; cited from earlier work
Chain of 5-HT1E (P28566 whole entry): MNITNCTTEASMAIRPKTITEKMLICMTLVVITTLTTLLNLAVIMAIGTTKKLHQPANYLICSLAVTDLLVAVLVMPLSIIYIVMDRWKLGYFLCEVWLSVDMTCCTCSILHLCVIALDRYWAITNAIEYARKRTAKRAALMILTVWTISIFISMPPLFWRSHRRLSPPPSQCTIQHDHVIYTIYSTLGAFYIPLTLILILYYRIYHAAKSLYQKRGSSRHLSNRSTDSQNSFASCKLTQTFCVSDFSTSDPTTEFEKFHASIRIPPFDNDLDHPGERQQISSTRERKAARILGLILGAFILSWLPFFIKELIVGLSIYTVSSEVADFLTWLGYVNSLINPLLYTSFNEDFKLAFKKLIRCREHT

| SMILES | difference in EC50 values between first and second phase [1] [fold] | effect on the magnitude of electrically evoked contractions ([1]; agonist alone, electrically stimulated rat bladder strips) | EC50 [2] [nM] | EC50 [3] [nM] | effect on the magnitude of a subsequent contraction to α,β-methylene-ATP [4] | second-phase affinity greater than affinity for 5-HT1B, 5-HT1E, 5-HT2A and 5-HT2C subtypes ([2]; bladder pKB versus published values) | Kb ([2]; inhibition of the second phase of the concentration-effect curve to 5-CT in the rat bladder, read-out: pKB (converted)) [nM] | first-phase affinity lower than affinity for the 5-HT2B receptor subtype ([3]; bladder pKB versus published value) | Ki [5] [nM] | pKB, 5-HT2B ([6]; Wainscott et al., 1993) | pK1 ([6]; cloned rat 5-HT2B receptor, reference 1 (Wainscott et al., 1993)) | pKB, 5-HT1E [7] |
| --- | --- | --- | --- | --- | --- | --- | --- | --- | --- | --- | --- | --- |
| NCCc1c[nH]c2ccc(C(N)=O)cc12 [5-CT, 5-carboxamidotryptamine] | 100 | mimicked | 158 | 1.58 | failed to significantly modify | – | – | – | – | – | – | – |
| COC(=O)[C@H]1[C@H]2C[C@H]3c4[nH]c5ccccc5c4CCN3C[C@H]2CC[C@@H]1O [rauwolscine] | – | – | – | – | – | at least 10 fold | 15.8 | more than 10 fold | 2510 | 7.5 | 7.5-7.6 | 5.5 |
